What all share (assay): relative viability (nuclei count vs DMSO), 5 days (fraction); higher = more cells survive
Compound in assay [1]: CC[C@H](C)N1C=C(C2=C(C=C(C=C21)C3=CN=C(C=C3)N4CCNCC4)C(=O)NCC5=C(C=C(NC5=O)C)C)C [GSK126] + CS(=O)(=O)N1CCN(Cc2cc3nc(-c4cccc5[nH]ncc45)nc(N4CCOCC4)c3s2)CC1 [Pictilisib] (partner 1 µM)
The gist of the method: (§1)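 Lung cancer cell lines in 1536-well plates got either a single drug or a fixed anchor-drug dose together with five library-drug doses (not always all listed) in √10 steps, by pin tool, on the day after seeding. Nuclei were counted after 5 days, and relative viability is the treated-to-vehicle ratio of nuclei counts. Values are medians of duplicate plates.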

Compound in assay [2]: C1CC(C1)(C(=O)O)C(=O)O.[NH2-].[NH2-].[Pt+2] [Carboplatin] + Cc1cc(Nc2cc(N3CCN(C)CC3)nc(Sc3ccc(NC(=O)C4CC4)cc3)n2)n[nH]1 [Tozasertib] (partner 0.1 µM)
The gist of the method:
as §1

Compound in assay [3]: C1CC(C1)(C(=O)O)C(=O)O.[NH2-].[NH2-].[Pt+2] [Carboplatin] + CC1(C)CCC(c2ccc(Cl)cc2)=C(CN2CCN(c3ccc(C(=O)NS(=O)(=O)c4ccc(N[C@H](CCN5CCOCC5)CSc5ccccc5)c(S(=O)(=O)C(F)(F)F)c4)cc3)CC2)C1 [Navitoclax] (partner 0.5 µM)
The gist of the method: as §1

Compound in assay [4]: C1CC(C1)(C(=O)O)C(=O)O.[NH2-].[NH2-].[Pt+2] [Carboplatin] + N=C(N)NC(=N)NCCc1ccccc1 [Phenformin] (partner 250 µM)
Put shortly:
as §1

UMC-11: the relative viability in assay [1] (first compound 0.08 µM) stood at 0.91; in assay [1] (first compound 0.253 µM) it was 0.85; in assay [1] (first compound 0.8 µM), 0.882; in assay [1] (first compound 2.53 µM), 0.829; in assay [1] (first compound 8 µM), 0.714; in assay [2] (first compound 0.08 µM) it was 0.22. Further, the relative viability in assay [2] (first compound 0.253 µM) came to 0.208; in assay [2] (first compound 0.8 µM), 0.207; in assay [2] (first compound 2.53 µM) it was 0.193; in assay [2] (first compound 8 µM), 0.212; in assay [3] (first compound 0.08 µM) it was 0.325; in assay [3] (first compound 0.253 µM), 0.355. Also, the relative viability is 0.342 in assay [3] (first compound 0.8 µM); 0.313 in assay [3] (first compound 2.53 µM); 0.256 in assay [3] (first compound 8 µM); 0.346 in assay [4] (first compound 0.08 µM); 0.324 in assay [4] (first compound 0.253 µM); 0.317 in assay [4] (first compound 0.8 µM). For the same cell line, the relative viability in assay [4] (first compound 2.53 µM) was determined as 0.331; in assay [4] (first compound 8 µM) it was 0.275.

Values taken from the supplement of paper PMC10307832.
